The text below walks through data of ChEMBL document CHEMBL4765365, “Design, synthesis and antitumour evaluation of pyrrolo[1,2-f]-phenanthridine and dibenzo[f,h]pyrrolo[1,2-b]isoquinoline derivatives” (Eur J Med Chem, 2020).

Calls of active or inactive are those of the source. The rule behind the calls is not given here.

The test system of one assay is CEM-VLB. Put plainly: Cytotoxicity against human CEM-VLB cells assessed as reduction in cell viability incubated for 72 hrs by XTT assay. The format is functional, cell-based.
A further assay relates to CCRF-CEM. Put plainly: Cytotoxicity against human CCRF-CEM cells assessed as reduction in cell viability incubated for 72 hrs by XTT assay. The format is functional, cell-based.
In the next assay the test system is dsDNA. Put plainly: Induction of pBR322 DNA interstand crosslink at 1 to 20 uM incubated for 2 hrs by agarose gel electrophoresis assay. The following applies: dose 1-20 µM.
Assay [1] in a line: Cytotoxicity against human PacaS1 cells assessed as reduction in cell viability incubated for 72 hrs by XTT assay. The format is functional, cell-based. As to conditions: PacaS1, 72 h.
A further assay concerns HCT-116. Put plainly: Cytotoxicity against human HCT-116 cells assessed as reduction in cell viability incubated for 72 hrs by XTT assay. The format is functional, cell-based. The following applies: HCT-116, 72 h.
The next assay deals with NCI-H1650. Put plainly: Cytotoxicity against human NCI-H1650 cells assessed as reduction in cell viability incubated for 72 hrs by XTT assay. The following applies: NCI-H1650, 72 h. Type of assay: functional, cell-based.
The test system of the next assay is NCI-H460. Put plainly: Cytotoxicity against human NCI-H460 cells assessed as reduction in cell viability incubated for 72 hrs by XTT assay. Type of assay: functional, cell-based. The following applies: NCI-H460, 72 h.

Regarding `CCc1c(CO)c(CO)c2n1Cc1c(c3ccccc3c3ccccc13)C2`, the half-maximal inhibitory concentration (IC50) in the assay on CEM-VLB worked out at 1.08 µM; in the assay on CCRF-CEM it was 1.38 µM; in assay [1], 2.66 µM; in the assay with HCT-116, 2.7 µM; in the assay on NCI-H1650, 2.39 µM; in the assay on NCI-H460, 1.33 µM. Further, the outcome in the assay with dsDNA was Active.
Consider `OCc1c(CO)c2c3ccccc3c3ccccc3n2c1-c1ccccc1`, for which the IC50 was determined as 10.9 µM with CEM-VLB; 9.82 µM in the assay with CCRF-CEM; 36.7 µM in assay [1]; 73.3 µM in the assay with HCT-116; 39 µM in the assay on NCI-H1650; 37.5 µM in the assay with NCI-H460.
As for `OCc1c(CO)c2c3ccccc3c3ccccc3n2c1-c1ccc(F)cc1`, the IC50 was found to be 6.44 µM in the assay on CEM-VLB and 8.09 µM in the assay with CCRF-CEM.
With `CCNC(=O)OCc1c(COC(=O)NCC)c2c3ccccc3c3ccccc3n2c1CC`, the IC50 with CEM-VLB amounted to 1.68 µM; with CCRF-CEM, 1.89 µM; in assay [1] it was 5.05 µM; in the assay with HCT-116 it was 8.53 µM; with NCI-H1650 it was 10.1 µM; in the assay on NCI-H460 it was 9.09 µM.
Consider `CCNC(=O)OCc1c(COC(=O)NCC)c2c3ccccc3c3ccccc3n2c1-c1ccc(F)cc1`, for which the IC50 with CEM-VLB was found to be 3.4 µM; with CCRF-CEM, 3.41 µM.
For `CC[C@]1(O)C[C@@H]2CN(CCc3c([nH]c4ccccc34)[C@@](C(=O)OC)(c3cc4c(cc3OC)N(C)[C@H]3[C@@](O)(C(=O)OC)[C@H](OC(C)=O)[C@]5(CC)C=CCN6CC[C@]43[C@@H]65)C2)C1` [VINBLASTINE], the figures for the IC50 in the assay on CEM-VLB and in the assay on CCRF-CEM were 0.393 µM and 0.00141 µM, respectively.
Regarding `COc1ccc(-c2c(CO)c(CO)c3c4ccccc4c4ccccc4n23)cc1`, the IC50 with CEM-VLB stood at 4.77 µM; with CCRF-CEM it was 6.34 µM.
`CCNC(=O)OCc1c(COC(=O)NCC)c2c3ccccc3c3ccccc3n2c1C`: the IC50 in the assay on CEM-VLB was determined as 0.37 µM; with CCRF-CEM, 0.37 µM; in assay [1], 2.26 µM; with HCT-116, 2.1 µM; with NCI-H1650, 4.47 µM; in the assay on NCI-H460, 1.2 µM.
On to `COc1ccc(-c2c(CO)c(CO)c3n2Cc2c(c4ccccc4c4ccccc24)C3)cc1`, for which the values for the concentration for half-maximal inhibition (IC50) in the assay on CEM-VLB and with CCRF-CEM were 2.83 µM and 2.99 µM, respectively.
On to `Cc1c(COC(=O)NC(C)C)c(COC(=O)NC(C)C)c2c3ccccc3c3ccccc3n12`, for which the concentration for half-maximal inhibition (IC50) with CEM-VLB amounted to 0.34 µM; in the assay with CCRF-CEM it was 0.35 µM; in assay [1], 1.8 µM; with HCT-116, 2.12 µM; in the assay with NCI-H1650 it was 5.17 µM; in the assay on NCI-H460, 1.19 µM.
As to `CCNC(=O)OCc1c(COC(=O)NCC)c2c3ccccc3c3ccccc3n2c1-c1ccc(OC)cc1`, the IC50 in the assay with CEM-VLB was determined as 2.85 µM; in the assay with CCRF-CEM, 3.01 µM.
For `OCc1c(CO)c(-c2ccc(F)cc2)n2c1Cc1c(c3ccccc3c3ccccc13)C2`, the IC50 with CEM-VLB turned out to be 6.14 µM; in the assay on CCRF-CEM, 6.5 µM.
As for `Cc1c(CO)c(CO)c2n1Cc1c(c3ccccc3c3ccccc13)C2`, the IC50 worked out at 0.34 µM in the assay with CEM-VLB; 0.36 µM in the assay on CCRF-CEM; 1.8 µM in assay [1]; 1.57 µM in the assay on HCT-116; 2.69 µM in the assay with NCI-H1650; 0.18 µM with NCI-H460. The outcome in the assay on dsDNA was Active.
Turning to `Cc1c(CO)c(CO)c2c3ccccc3c3ccccc3n12`, the IC50 with CEM-VLB came out at 0.55 µM; with CCRF-CEM, 0.91 µM; in assay [1], 3.5 µM; in the assay on HCT-116, 1.88 µM; in the assay with NCI-H1650 it was 4.46 µM; in the assay on NCI-H460, 2.87 µM. Further, the result in the assay with dsDNA was Active.
Regarding `CCc1c(CO)c(CO)c2c3ccccc3c3ccccc3n12`, the IC50 in the assay with CEM-VLB was 2.89 µM; with CCRF-CEM it was 7.39 µM; in assay [1], 6.2 µM; in the assay on HCT-116, 11.5 µM; with NCI-H1650, 13.6 µM; with NCI-H460, 9.48 µM.
With `CC(C)NC(=O)OCc1c(COC(=O)NC(C)C)c2c3ccccc3c3ccccc3n2c1-c1ccccc1`, the IC50 in the assay with CEM-VLB is 4.48 µM; in the assay on CCRF-CEM it was 3.15 µM; in assay [1] it was 13.8 µM; with HCT-116, 16.2 µM; in the assay with NCI-H1650, 16.3 µM; with NCI-H460, 14.9 µM.
Consider `CCNC(=O)OCc1c(COC(=O)NCC)c2c3ccccc3c3ccccc3n2c1-c1ccccc1`, for which the IC50 in the assay with CEM-VLB amounted to 2.48 µM; in the assay on CCRF-CEM it was 4.09 µM; in assay [1] it was 11.1 µM; in the assay on HCT-116 it was 21 µM; in the assay on NCI-H1650, 18.2 µM; with NCI-H460, 9.03 µM.
As for `CCc1c(COC(=O)NC(C)C)c(COC(=O)NC(C)C)c2c3ccccc3c3ccccc3n12`, the IC50 in the assay with CEM-VLB stood at 1.55 µM; in the assay with CCRF-CEM, 1.89 µM; in assay [1], 4.58 µM; with HCT-116, 16.2 µM; in the assay with NCI-H1650, 10.2 µM; in the assay with NCI-H460 it was 4.98 µM.
For `CC(C)NC(=O)OCc1cn2c3ccccc3c3ccccc3c2c1COC(=O)NC(C)C`, the IC50 in the assay with CEM-VLB turned out to be 2.21 µM; in the assay on CCRF-CEM it was 1.75 µM; in assay [1], 15.3 µM; with HCT-116, 2.27 µM; in the assay with NCI-H1650, 9.62 µM; with NCI-H460, 7.2 µM.
As to `CC(C)NC(=O)OCc1c(COC(=O)NC(C)C)c2c3ccccc3c3ccccc3n2c1-c1ccc(F)cc1`, the IC50 stood at 3.17 µM in the assay with CEM-VLB and 4.1 µM with CCRF-CEM.
In the case of `OCc1c(CO)c(-c2ccccc2)n2c1Cc1c(c3ccccc3c3ccccc13)C2`, the IC50 in the assay on CEM-VLB was 3.66 µM; with CCRF-CEM, 3.21 µM; in assay [1], 4.45 µM; with HCT-116 it was 5.99 µM; in the assay with NCI-H1650 it was 7.95 µM; in the assay on NCI-H460 it was 2.34 µM.
Regarding `CCNC(=O)OCc1cn2c3ccccc3c3ccccc3c2c1COC(=O)NCC`, the IC50 in the assay on CEM-VLB was found to be 1.24 µM; with CCRF-CEM, 1.28 µM; in assay [1], 4.41 µM; in the assay with HCT-116, 1.8 µM; with NCI-H1650, 5.73 µM; in the assay on NCI-H460, 4.25 µM.
Regarding `COc1ccc(-c2c(COC(=O)NC(C)C)c(COC(=O)NC(C)C)c3c4ccccc4c4ccccc4n23)cc1`, the IC50 in the assay on CEM-VLB stood at 2.76 µM; in the assay with CCRF-CEM, 2.19 µM.
